In patent US20240408175A1, “BMP9 OR AN AGONIST THEREOF AND ITS USES RELATED TO REDUCING METASTASIS OF CANCER” (THE UAB RESEARCH FOUNDATION, priority 2021, published 2024):
Residues, ends and D or L forms follow the SMILES beside them. *: point of attachment. Cbz = O=C(OCc1ccccc1)*

Tests used:
[1] = system: SOX2; experiment: SOX2 expression by Western blot / qRT-PCR in cancer cells; type: cell-based, human; details: for SOX2 protein and mRNA expression: attached and anchorage-independent conditions; for recovery in SOX2 repression by BMP2: PA1, 1 h pretreatment (5 μM DM, 3 μM ML347); for recovery in SOX2 repression by BMP2 / effect on SOX2 repression by BMP2: then BMP2 24 h; for effect on SOX2 repression by BMP9: 1 h pretreatment (5 μM SB431542, 3 μM ML347, 0.8 μM LDN193189), then BMP9 24 hours; for effect on SOX2 repression by BMP2: PA1, 1 h pretreatment (5 μM SB431542, 0.8 μM LDN193189); for SOX2 protein and RNA levels: 10 nM, 24 hours, PA1 (and OVCAR3) cells
Protocol: Lysate and RNA preparation: 100,000-300,000 cells were seeded in a poly-HEMA coated 6-well plate for indicated times in full serum unless indicated otherwise. Cells were collected by centrifugation and lysed with trizol for RNA extraction or direct 2× lysis buffer for protein lysates.
Xenograft data were analyzed using parametric statistics as described in the legends. Survival curves were analyzed with log-rank statistics. In vitro experiments were analyzed using parametric statistics (ANOVA global test with Dunnett's/Sidak multiple comparison test as post-hoc tests as applicable and described in legend) and presented as the mean±SEM. All real time PCR's are relative semi quantitative RT-PCR's (hereby referred to as qRT-PCR) and are a combined quantitation of a minimum of 3 independent biological trials assayed in triplicate with biological replicates represented as individual scatter dots in the graphs or as indicated in legends. In all cases, statistical significance was set at a threshold of p<0.05. All statistical analyses were conducted with GraphPad Prism Software Ver. 9.0 and specific statistical test information described in figure legends.

[2] = system: 1-kb SOX2 promoter reporter; experiment: pGL3-SOX2 promoter-reporter luciferase assay in HEK293 cells; type: cell-based, human
Protocol: HEK293 cells were transfected with the pGL3-SOX2 promoter-luciferase reporter plasmid construct and SV40-renilla for 24h. […] According to the manufacturer's instruction, cells were collected and lysed in […] passive lysis buffer. To measure luciferase activity, […] of lysate was added to […] of dual Luciferase Assay Reagent, and luminescence was quantitated using a luminometer (Biotek).

[3] = system: SOX2 promoter; experiment: Chromatin immunoprecipitation (ChIP) at SOX2 promoter regions; type: cell-based, human; details: for SMAD3 occupancy at p1, p3, p4, p5, p6 (ChIP): 1 h treatment
Protocol: ChIP was carried out using a modified version of a previously described protocol (Medeiros et al., 2009). Cells were grown to 80% confluency in 150 mm culture dishes. Cells were fixed at room temperature in 1% Paraformaldehyde solution (dilute 8% PFA in serum free media to get 1%) and rocked for 10 minutes. 10×Glycine was added to the plate and allowed to sit for 5 minutes at room temperature. Cells were scraped down and cell suspension were transferred to a cold centrifuge tube for centrifugation at 720 RCF at 4° C. for 10 minutes. Cells were rinsed with 1X Phosphate buffer saline and centrifugation repeated. Cell pellet was next resuspended in lysis buffers described in (Medeiros et al., 2009) to obtain nuclei pellet. This was followed by chromatin sonication, using QSonica sonicator (model CL-188) for four cycles (30% amplitude for 15 secs ON and 30 secs OFF) to obtain DNA fragments with a length from 150 to 300 bp. 1/10th of the supernatant was stored as input control. ChIP was performed using Protein A magnetic beads (Dynabeads, Invitrogen #10001D) to couple […] ChIP-grade antibodies for SMAD1, SMAD3, H3K27me3, H3K4me3, or rabbit IgG antibody overnight at 4 °C. DNA was purified using the PureLink Quick PCR Purification kit (Thermo Fisher Cat #: K310001) and enrichment of DNA fragments analyzed via relative quantitative RT-PCR (qPCR) using ChIP primers (see Table 2) to specific locations. Negative and positive control regions were included in all analysis.

[4] = system: HEYT30 cells; experiment: Paclitaxel cell viability with BMP9 in HEYT30 (FIG. 10, 13A); type: cell-based; details: Homo sapiens, read-out: paclitaxel IC50 concentration
[5] = system: HEY-T30 cells; experiment: Flow cytometry, Annexin V / PI apoptosis; type: cell-based, human; details: 3D, 48 hours; 10 nM BMP9, 300 nM paclitaxel or combination
Protocol: 700,000 cells were seeded in 60 mm poly-hema coated culture dishes, followed by incubation with 300 nM paclitaxel and 10 nM BMP9 alone or in simultaneous combination for 48 hours. Cells were centrifuged and resuspended in 1×binding buffer, followed by incubation with Annexin V and PI according to the manufacturer's procedure manual. The stained cell suspension was added to FACS tubes containing 200 μl 1×binding buffer and measured by BD LSRFortessa flow cytometer. The data were analyzed using BD FACSDiva (Becton Dickinson, NJ, USA) software. Annexin V-positive and PI-negative cells were considered to be in the early apoptotic phase, Annexin V-negative and PI-positive cells were considered to be in the necrosis phase, cells having positive staining for both Annexin-V and PI were considered to undergo late apoptosis and cells negative for Annexin V and PI were considered to be live cells.

[6] = system: HEYT30 cells; experiment: CellTiter Glo 3D cell viability assay, paclitaxel with BMP9; details: read-out: paclitaxel IC50 concentration, 3D conditions
[7] = system: SOX2 promoter methylation; experiment: Methylation-specific qPCR of SOX2 promoter; type: cell-based, human; details: for SOX2 promoter methylation, inhibitor alone: 5 μM
Protocol: Genomic DNA was extracted, and bisulfite conversion was performed on 500 ng of gDNA using the MethylAmp DNA modification kit according to manufacturer's instructions. Relative quantitative RT-PCR (qPCR) was performed with methylation-specific and unmethylation-specific primers (see Table 3).

[8] = system: OC cells (PA1, OVCA420, and OVCAR3); experiment: Live-dead analysis of anchorage-independent spheroids, TGF-β1/activin A; type: cell-based, human; details: 1 nM TGFβ1, 10 nM activin, 24 hrs
Protocol: (§1) For Live/Dead analysis under anchorage independence, 1,000 cells were seeded in 96-well hydrogel-coated ultra-low attachment (ULA) plates (Corning #4515) for times indicated. Growth factor treatment was done under low serum 2.5% FBS condition (Cells were plated in 10% FBS to allow spheroid formation before beginning treatment). Cells were then stained with 2 μM Calcein-AM and 4 μM Ethidium-homodimer for 30 min before imaging. z-stacked images were obtained using the Zeiss LSM700 Confocal microscope (Microscopy and Flow Cytometry Core, University of South Carolina) and NIKON A1 Confocal microscope (UAB High Resolution Imaging Facility). Fluorescent quantification was performed using ImageJ Fiji software to calculate the Corrected Total Cell Fluorescent (CTCF)=Integrated Density−(Area of selected cell×Mean fluorescence of background readings) per spheroid.

[9] = system: Phosphorylated SMAD1 (pSMAD1); experiment: SMAD1 phosphorylation (Western blot); type: cell-based, human
[10] = system: PA1 cells; experiment: Live/Dead analysis under anchorage independence (anoikis), PA1 cells; type: cell-based, human; details: 10 nM for 24 hrs after 48 hours anchorage independence
Protocol: as §1

## CC[C@H](C)n1cc(C)c2c(C(=O)NCc3c(C)cc(C)[nH]c3=O)cc(-c3ccc(N4CCNCC4)nc3)cc21 [GSK126]
[1]; 5 μM GSK126, multiple cell lines
  SOX2 repression by BMP9: abrogated

## activin A: activin A, TGF-β family member
[1]
  SOX2 protein and mRNA expression: increased
[2]; 10 nM activin A, 24 hours
  luciferase activity of SOX2 promoter reporter: increased
[3]
  SMAD3 occupancy at p1, p3, p4, p5, p6 (ChIP): occupied by SMAD3

## CC(C)C[C@@H](C=O)NC(=O)[C@H](CC(C)C)NC(=O)[C@H](CC(C)C)NC(=O)OCc1ccccc1 [MG132] (Cbz-Leu-Leu-Leu-aldehyde)
[1]; PA1, 0.5 μM MG132 1 hour, then rhBMP2/9
  effect on BMP's ability to repress SOX2: No effect

## CC(=O)O[C@H]1C(=O)[C@@]2(C)[C@H]([C@H](OC(=O)c3ccccc3)[C@]3(O)C[C@H](OC(=O)[C@H](O)[C@@H](NC(=O)c4ccccc4)c4ccccc4)C(C)=C1C3(C)C)[C@]1(OC(C)=O)CO[C@@H]1C[C@@H]2O [paclitaxel]
[4]; 24-hour pretreatment 1 nM BMP9, then combination 48 hours
  IC50: 90.8 nM
[4]; 24-hour pretreatment 5 nM BMP9, then combination 48 hours
  IC50: 22.6 nM
[4]; 24-hour pretreatment 10 nM BMP9, then combination 48 hours
  IC50: 4.1 nM
[4]; 48 h, simultaneous 1 nM BMP9, 48 hours
  IC50: 91.7 nM
[4]; 48 h, simultaneous 5 nM BMP9, 48 hours
  IC50: 89 nM
[4]; 48 h, simultaneous 10 nM BMP9, 48 hours
  IC50: 73 nM
[4]; 48 h, untreated control (no BMP9), simultaneous series, 48 hours
  IC50: 107 nM
[4]; untreated control (no BMP9), 24-hour pretreatment series
  IC50: 113 nM
[5]
  apoptosis in cells: 12.8%
[6]; 24-hour pretreatment 5 nM BMP9
  IC50: 286 nM
[6]; 24-hour pretreatment 10 nM BMP9
  IC50: 211 nM

## c1cc(-c2cnn3cc(-c4ccc(OCCN5CCCCC5)cc4)cnc23)ccn1 [DM, Dorsomorphin]
[1]; PA1, 5 μM pretreatment 1 h, then rhBMP9 24 hours
  recovery in SOX2 levels in the presence of BMP9: 34.3%
[1]
  recovery in SOX2 repression by BMP2: 23%

## Nc1ncn([C@@H]2O[C@H](CO)[C@@H](O)[C@H]2O)c(=O)n1 [50-Aza, 50-azacytidine]
[1]; PA1, 5 μM with 10 nM rhBMP9
  SOX2 mRNA downregulation by BMP9: suppressed
[1]; SKOV3 cells, 5 μM
  SOX2 mRNA, inhibitor alone: concomitant increase
[1]; SKOV3 cells, 5 μM with 10 nM rhBMP9
  BMP9-induced SOX2 transcriptional repression: repressed
[7]; PA1, 5 μM 48 h pretreatment, then rhBMP9 24 h
  BMP9-induced SOX2 promoter methylation: abrogated
[7]; PA1 cells
  SOX2 promoter methylation, inhibitor alone: minimal effect
[7]; SKOV3 cells, 48 hours
  SOX2 promoter methylation, inhibitor alone: suppressed SOX2 promoter methylation significantly

## TGF-β1: transforming growth factor β1 ligand
[8]
  live/dead ratio of spheroids: increased
[1]
  SOX2 protein and mRNA expression: increased
[2]; TGF-β1 400 pM, 24 h
  luciferase activity of SOX2 promoter reporter: increased
[3]
  SMAD3 occupancy at p1, p3, p4, p5, p6 (ChIP): consistent SMAD3 enrichment
[3]; PA1, 1-h TGF-β1
  H3K4me3 at SMAD3 motifs p1, p3, p4, p5, p6 (ChIP): enrichment

## COc1ccc(-c2cnc3c(-c4cccc5ncccc45)cnn3c2)cc1 [ML347]
[1]; 3 μM ML347, PA1
  baseline SOX2 levels in the absence of exogenous ligand: increased
[1]
  effect on SOX2 repression by BMP9: abrogated
  recovery in SOX2 repression by BMP2: 72%
[9]; 3 μM ML347
  BMP9-induced phosphorylation of SMAD1: completely suppressed
  suppression of BMP2-induced SMAD1 phosphorylation: 40%

## NC(=O)c1ccc(-c2nc(-c3ccc4c(c3)OCO4)c(-c3ccccn3)[nH]2)cc1 [SB431542]
[1]; 5 μM SB431542 1 h, then 400 pM TGF-β1 24 h
  TGF-β1-induced SOX2 increases: suppressed
[1]
  effect on SOX2 repression by BMP9: did not significantly alter
  effect on SOX2 repression by BMP2: did not alter
[9]; 5 μM inhibitor
  pSMAD1 in response to BMP2 and -9: no effects
[3]; PA1, TGF-β1 + SB431542
  TGF-β1-induced H3K4me3 enrichment (ChIP): abrogated

## c1ccc2c(-c3cnn4cc(-c5ccc(N6CCNCC6)cc5)cnc34)ccnc2c1 [LDN193189]
[1]; 0.8 μM LDN193189, PA1
  increase of SOX2 protein levels at baseline in the absence of exogenous ligand: 33
[1]
  effect on SOX2 repression by BMP9: blocked
  effect on SOX2 repression by BMP2: blocked
[9]; 0.8 μM LDN193189, PA1 and OVCAR3
  BMP2- and BMP9-induced SMAD1/5 phosphorylation: Full inhibition
[3]; PA1, rhBMP9 + LDN193189
  BMP9-induced H3K27me3 occupancy on the SOX2 promoter (ChIP): significantly reduced

B1: BMP4: recombinant human BMP4, BMP ligand (protein, UniProt P12644 293-408, looked up)
Bone morphogenetic protein 4: SPKHHSQRARKKNKNCRRHSLYVDFSDVGWNDWIVAPPGYQAFYCHGDCPFPLADHLNSTNHAIVQTLVNSVNSSIPKACCVPTELSAISMLYLDEYDKVVLKNYQEMVVEGCGCR
[10]
  decrease of live-to-dead cell ratio: 1.93
[1]
  SOX2 protein and RNA levels: downregulation

B2: BMP10: recombinant human BMP10, highest sequence homology to BMP9 (protein, UniProt O95393 317-424, looked up)
Bone morphogenetic protein 10: NAKGNYCKRTPLYIDFKEIGWDSWIIAPPGYEAYECRGVCNYPLAEHLTPTKHAIIQALVHLKNSQKASKACCVPTKLEPISILYLDKGVVTYKFKYEGMAVSECGCR
[10]
  anoikis: did not alter
[1]
  SOX2 protein and RNA levels: did not alter
[9]
  activation of SMAD1/5: failed to activate
